Reference: publication PMC11881559 (Antimicrobial Agents and Chemotherapy, 2025)

Assay: Tolerability and safety assessment (AEs/ADRs, CTCAE 5.0)
Assay type: in vivo, human
Description: Safety and tolerability assessments were conducted for all participants who received at least one dose of RAY1216, either alone or in combination with ritonavir, throughout the study. The safety of all participants was evaluated on the basis of clinical symptoms, vital signs, 12-lead ECG, laboratory tests, physical examinations, and the evaluation of adverse events (AEs). All AEs were documented and graded according to the Common Terminology Criteria for Adverse Events (CTCAE, ver. 5.0). The grading scale was as follows: grade 1 (mild), grade 2 (moderate), grade 3 (severe), grade 4 (life threatening), and grade 5 (death).

[1] = Food effect, 800 mg, Fast (N = 12)
[2] = Food effect, 800 mg, Fed (N = 12)

O=C(NC1CCCC1)C(=O)[C@H](C[C@@H]1CCNC1=O)NC(=O)[C@@H]1[C@H]2CCC[C@H]2CN1C(=O)[C@@H](NC(=O)C(F)(F)F)C1CCCCC1 [RAY1216, leritrelvir]
participants who experienced at least one adverse event (AE) (37 of all 88 participants (RAY1216 or placebo)): 42% | ADR, n (%) [1]: 2 (16.7) n (%) | AE, n (%) [1]: 3 (25.0) n (%) | ALT elevated (ADR) [1]: 0 n (%) | AST elevated (ADR) [1]: 0 n (%) | Anemia (ADR) [1]: 0 n (%) | Bilirubin elevated (ADR) [1]: 0 n (%) | Diarrhea (ADR) [1]: 0 n (%) | Fatigue (ADR) [1]: 0 n (%) | Grade 2 ADRs [1]: 1 (8.3) n (%) | Grade ≥3 AEs [1]: 0 n (%) | Hypertriglyceridemia (ADR) [1]: 0 n (%) | Hyperuricemia (ADR) [1]: 0 n (%) | Leukopenia (ADR) [1]: 1 (8.3) n (%) | Nausea (ADR) [1]: 0 n (%) | Neutrophil decreased (ADR) [1]: 1 (8.3) n (%) | Palpitations (ADR) [1]: 0 n (%) | Serum creatinine elevated (ADR) [1]: 0 n (%) | ADR, n (%) [2]: 4 (33.3) n (%) | AE, n (%) [2]: 5 (41.7) n (%) | ALT elevated (ADR) [2]: 0 n (%) | AST elevated (ADR) [2]: 0 n (%) | Anemia (ADR) [2]: 0 n (%) | Bilirubin elevated (ADR) [2]: 0 n (%) | Diarrhea (ADR) [2]: 0 n (%) | Fatigue (ADR) [2]: 0 n (%) | Grade 2 ADRs [2]: 1 (8.3) n (%) | Grade ≥3 AEs [2]: 0 n (%) | Hypertriglyceridemia (ADR) [2]: 1 (8.3) n (%) | Hyperuricemia (ADR) [2]: 0 n (%) | Leukopenia (ADR) [2]: 0 n (%) | Nausea (ADR) [2]: 0 n (%) | Neutrophil decreased (ADR) [2]: 0 n (%) | Palpitations (ADR) [2]: 0 n (%) | Serum creatinine elevated (ADR) [2]: 2 (16.7) n (%) | participants reporting at least one ADR (MAD study with or without ritonavir, 9 out of 32 participants): 28.1% | ADR, n (%) (MAD, 400 mg TID (N = 6)): 2 (33.3) n (%) | AE, n (%) (MAD, 400 mg TID (N = 6)): 2 (33.3) n (%) | ALT elevated (ADR) (MAD, 400 mg TID (N = 6)): 0 n (%) | AST elevated (ADR) (MAD, 400 mg TID (N = 6)): 0 n (%) | Anemia (ADR) (MAD, 400 mg TID (N = 6)): 0 n (%) | Bilirubin elevated (ADR) (MAD, 400 mg TID (N = 6)): 0 n (%) | Diarrhea (ADR) (MAD, 400 mg TID (N = 6)): 0 n (%) | Fatigue (ADR) (MAD, 400 mg TID (N = 6)): 0 n (%) | Grade 2 ADRs (MAD, 400 mg TID (N = 6)): 0 n (%) | Grade ≥3 AEs (MAD, 400 mg TID (N = 6)): 0 n (%) | Hypertriglyceridemia (ADR) (MAD, 400 mg TID (N = 6)): 1 (16.7) n (%) | Hyperuricemia (ADR) (MAD, 400 mg TID (N = 6)): 0 n (%) | Leukopenia (ADR) (MAD, 400 mg TID (N = 6)): 0 n (%) | Nausea (ADR) (MAD, 400 mg TID (N = 6)): 0 n (%) | Neutrophil decreased (ADR) (MAD, 400 mg TID (N = 6)): 0 n (%) | Palpitations (ADR) (MAD, 400 mg TID (N = 6)): 0 n (%) | Serum creatinine elevated (ADR) (MAD, 400 mg TID (N = 6)): 0 n (%) | participants reporting at least one ADR (MAD, 400 mg TID group, two participants): 33.3% | participants reporting at least one ADR (SAD, 200 mg cohort, two participants): 33.3% | ADR, n (%) (SAD, 400 mg (N = 6)): 2 (33.3) n (%) | AE, n (%) (SAD, 400 mg (N = 6)): 2 (33.3) n (%) | ALT elevated (ADR) (SAD, 400 mg (N = 6)): 0 n (%) | AST elevated (ADR) (SAD, 400 mg (N = 6)): 0 n (%) | Anemia (ADR) (SAD, 400 mg (N = 6)): 0 n (%) | Bilirubin elevated (ADR) (SAD, 400 mg (N = 6)): 1 (16.7) n (%) | Diarrhea (ADR) (SAD, 400 mg (N = 6)): 0 n (%) | Fatigue (ADR) (SAD, 400 mg (N = 6)): 0 n (%) | Grade 2 ADRs (SAD, 400 mg (N = 6)): 0 n (%) | Grade ≥3 AEs (SAD, 400 mg (N = 6)): 0 n (%) | Hypertriglyceridemia (ADR) (SAD, 400 mg (N = 6)): 0 n (%) | Hyperuricemia (ADR) (SAD, 400 mg (N = 6)): 0 n (%) | Leukopenia (ADR) (SAD, 400 mg (N = 6)): 0 n (%) | Nausea (ADR) (SAD, 400 mg (N = 6)): 0 n (%) | Neutrophil decreased (ADR) (SAD, 400 mg (N = 6)): 0 n (%) | Palpitations (ADR) (SAD, 400 mg (N = 6)): 0 n (%) | Serum creatinine elevated (ADR) (SAD, 400 mg (N = 6)): 1 (16.7) n (%) | participants reporting at least one ADR (SAD, 400 mg cohort, two participants): 33.3% | ADR, n (%) (SAD, 800 mg (N = 6)): 0 n (%) | AE, n (%) (SAD, 800 mg (N = 6)): 1 (16.7) n (%)
